Biological target: T1, CaMKIIδ (Homo sapiens, UniProt Q13557)
T1 construct: His/Gln tag (C)
Test: In vitro CaMKIIδ activity (inhibition) assay, coupled assay measuring ADP released
Type: biochemical
Conditions: full length C-terminal His/Gln tagged CaMKIIδ construct, 16 nM; peptide substrate AC3; 25° C.
Description: An exemplary procedure for the in vitro CaMKIIδ inhibition assay, which can be used to determine the inhibitory action of compounds of the invention toward CaMKII, follows. The procedure is taken from Chao L H, et al., (2010) Nat Struct Mol Biol. 17(3): 264-272, which is incorporated herein by reference in its entirety.
The inhibition of CaMKII activity was evaluated using a coupled assay measuring ADP released following ATP hydrolysis and phosphor-transfer to the peptide substrate AC3 (KKALHRQETVDAL; SEQ ID NO: 1) (1). A full length, C-terminal His/Gln tagged CaMKIIδ construct was used (sequence in Table 2 below).
Compounds were added in 5 uL volume to wells in UV transparent 96-well plates (½ area well size). The final compound concentrations tested ranged from 0.5 nM to 10 uM). Assays were performed in duplicate. CaMKIIδ is added to at a final concentration of 16 nM to a mixture containing 100 mM Tris (pH 7.5), 150 mM KCl, 0.27 mM EGTA, 1.3 mM PEP, 0.2 mg/ml AC3, 6.9% (v/v) PK/LDH mixture (Sigma P0294), 0.38 mM NADH and kept on ice. 72 uL of the enzyme mixture was added to the wells containing compounds and the plate was shaken briefly and kept on ice. The assay was initiated by adding 23 uL of a mixture containing 100 mM Tris (pH 7.5), 150 mM KCl, 1.7 mM CaCl2, 48 mM MgCl2, 0.35 mM ATP and 6.7 ug/mL calmodulin. The rate of ADP released was measured as the rate of absorbance decrease at […] at 25° C. and plotted against the log of the compound concentration (FIG. 1). IC50 data were fitted using GraphPad Prism software.

T1 sequence (Q13557 whole entry, looked up): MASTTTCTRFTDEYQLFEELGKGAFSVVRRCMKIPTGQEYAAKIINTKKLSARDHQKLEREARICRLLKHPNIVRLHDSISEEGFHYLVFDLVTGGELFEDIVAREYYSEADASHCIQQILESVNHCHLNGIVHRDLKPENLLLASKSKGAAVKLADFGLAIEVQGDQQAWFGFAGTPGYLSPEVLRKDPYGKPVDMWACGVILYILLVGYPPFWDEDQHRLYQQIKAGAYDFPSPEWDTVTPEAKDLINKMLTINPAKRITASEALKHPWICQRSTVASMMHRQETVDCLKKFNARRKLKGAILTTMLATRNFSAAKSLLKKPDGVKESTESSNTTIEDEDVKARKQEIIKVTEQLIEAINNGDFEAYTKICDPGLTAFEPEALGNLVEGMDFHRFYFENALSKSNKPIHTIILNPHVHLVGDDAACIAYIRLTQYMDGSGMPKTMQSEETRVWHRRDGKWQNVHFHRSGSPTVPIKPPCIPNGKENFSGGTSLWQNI

| IC50 | Structure (SMILES) |
| --- | --- |
| 50 to 250 nM | c1cc(-c2ccnc3[nH]c4ccccc4c23)cc(N2CCNCC2)c1 [Compound I-1, 4-(3-(piperazin-1-yl)phenyl)-9H-pyrido[2,3-b]indole] |
| ≥ 1000 nM | c1cc(-c2ccnc3[nH]c4ccccc4c23)cc(-n2ccnc2)c1 [Compound I-2, 4-(3-(1H-imidazol-1-yl)phenyl)-9H-pyrido[2,3-b]indole] |
| ≥ 1000 nM | NCc1cccc(-c2ccnc3[nH]c4ccccc4c23)c1 [Compound I-3, (3-(9H-pyrido[2,3-b]indol-4-yl)phenyl)methanamine] |
| 50 to 250 nM | N=C(N)Nc1cccc(-c2ccnc3[nH]c4ccccc4c23)c1 [Compound I-4, 1-(3-(9H-pyrido[2,3-b]indol-4-yl)phenyl)guanidine] |
| 250 to 1000 nM | N=C(N)NCc1cccc(-c2ccnc3[nH]c4ccccc4c23)c1 [Compound I-5, 1-(3-(9H-pyrido[2,3-b]indol-4-yl)benzyl)guanidine] |
| 50 to 250 nM | Nc1cccc(-c2ccnc3[nH]c4ccccc4c23)c1 [Compound I-6, 3-(9H-pyrido[2,3-b]indol-4-yl)aniline] |
| ≤ 50 nM | NCCNc1cccc(-c2ccnc3[nH]c4ccccc4c23)c1 [Compound I-7, N1-(3-(9H-pyrido[2,3-b]indol-4-yl)phenyl)ethane-1,2-diamine] |
| ≤ 50 nM | NCCCNc1cccc(-c2ccnc3[nH]c4ccccc4c23)c1 [Compound I-8, N1-(3-(9H-pyrido[2,3-b]indol-4-yl)phenyl)propane-1,3-diamine] |
| ≤ 50 nM | NCCOc1cccc(-c2ccnc3[nH]c4ccccc4c23)c1 [Compound I-9, 2-(3-(9H-pyrido[2,3-b]indol-4-yl)phenoxy)ethanamine] |
| ≤ 50 nM | NCCCOc1cccc(-c2ccnc3[nH]c4ccccc4c23)c1 [Compound I-10, 3-(3-(9H-pyrido[2,3-b]indol-4-yl)phenoxy)propan-1-amine] |
| ≤ 50 nM | Cc1ccc2c(c1)[nH]c1nccc(-c3cccc(NCCN)c3)c12 [Compound I-11] |
| ≤ 50 nM | COc1ccc2c(c1)[nH]c1nccc(-c3cccc(NCCN)c3)c12 [Compound I-12, N1-(3-(7-methoxy-9H-pyrido[2,3-b]indol-4-yl)phenyl)ethane-1,2-diamine] |
| ≤ 50 nM | Cc1ccc2[nH]c3nccc(-c4cccc(NCCN)c4)c3c2c1 [Compound I-13, N1-(3-(6-methyl-9H-pyrido[2,3-b]indol-4-yl)phenyl)ethane-1,2-diamine] |
| ≤ 50 nM | NCCNc1cccc(-c2ccnc3[nH]c4ccc(Cl)cc4c23)c1 [Compound I-14, N1-(3-(6-chloro-9H-pyrido[2,3-b]indol-4-yl)phenyl)ethane-1,2-diamine] |
